Among the test systems are BT-549 breast; CAKI-1 renal; COLO 205 colon; DU-145 prostate; KM12 colon; M14 melanoma; SF-295 CNS; SNB-75 CNS; TK-10 renal; UACC-257 melanoma.
Holding throughout (test): growth of human tumour cells (NCI), 48 h

Values joined by “and” are separate entries in the source; they are usually repeats but may differ in a detail not shown here. Equal values may be shown once.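 Results reflect a 48-hour exposure of cells in 96-well plates to compound at five concentrations. GI50: concentration for 50% inhibition of growth. TGI: total growth inhibition.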

For `C=C/C=C/[C@@H](O)CC(=C)C[C@H]1OC2[C@H](C)[C@@H](OC(=O)C[C@H]3C[C@H](OC(C)=O)C[C@@]4(C[C@@](C)(O)C[C@H](CC(=C)[C@@H](C)[C@H](OC(C)=O)[C@H](C)C(=O)C[C@@H]5C[C@H](OC)CC6(C[C@@H](O)C[C@H](/C=C\CCC[C@H]7O[C@](O)(C=C[C@H]7C)[C@H]2O)O6)O5)O4)O3)[C@@H]1O`, the GI50 is 0.0025 µM with BT-549 breast; 0.00538 µM and 0.0025 µM in the experiment on CAKI-1 renal; 0.000359 µM and < 0.0025 µM in the experiment with COLO 205 colon; 0.0012 µM and 0.0025 µM in the experiment on DU-145 prostate; 0.000327 µM and 0.0025 µM in the experiment on KM12 colon; 0.000492 µM and < 0.0025 µM with SF-295 CNS. For the same molecule, the GI50 in the experiment with SNB-75 CNS is over 25 µM; in the experiment on TK-10 renal, 0.00162 µM and 0.0025 µM; in the experiment on UACC-257 melanoma, 0.00248 µM. The TGI was over 25 µM in the experiment on BT-549 breast; under 0.0025 µM in the experiment with COLO 205 colon; 0.00709 µM in the experiment on M14 melanoma; 0.0029 µM and < 0.0025 µM in the experiment on SF-295 CNS; over 25 µM in the experiment with SNB-75 CNS; over 25 µM in the experiment on UACC-257 melanoma.

As to `Cc1ccc(S(=O)(=O)SC(C)(C)C)cc1`, the TGI with BT-549 breast is 42.3 µM; in the experiment on CAKI-1 renal, 41.4 µM; with COLO 205 colon it was over 92.5 µM; in the experiment on DU-145 prostate, over 100 µM; with KM12 colon it was over 91.4 µM; in the experiment with M14 melanoma, over 88.8 µM. For the same molecule, the TGI in the experiment with SF-295 CNS was over 100 µM; in the experiment on SNB-75 CNS, over 100 µM; with TK-10 renal, over 100 µM; in the experiment on UACC-257 melanoma it was 50.3 µM.

Consider `COCc1c(-c2cc3cc(C)cc(OC)c3s2)c2c(N)ncnn2c1CN1CCNC(=O)C1`, for which the GI50 with BT-549 breast is 1.03 µM; with CAKI-1 renal, 4.88 µM; in the experiment on COLO 205 colon it was 5.13 µM; in the experiment on DU-145 prostate it was 4.99 µM; with KM12 colon, 5.62 µM; in the experiment on M14 melanoma, 4.12 µM. The GI50 in the experiment on SF-295 CNS was 3.05 µM; in the experiment on SNB-75 CNS, 2.13 µM; in the experiment on TK-10 renal, 3.64 µM; with UACC-257 melanoma it was 4.06 µM. For the same molecule, the TGI is 17.1 µM in the experiment with BT-549 breast; 44.2 µM in the experiment on CAKI-1 renal; 24.4 µM in the experiment with COLO 205 colon; over 100 µM in the experiment with DU-145 prostate; 77.6 µM with KM12 colon; 35.4 µM in the experiment on M14 melanoma. Besides, the TGI in the experiment on SF-295 CNS is 21.5 µM; with SNB-75 CNS, 17.8 µM; with TK-10 renal it was 30.6 µM; with UACC-257 melanoma it was 34.6 µM.

Take `COc1ccc2c(c1)[nH]c(=O)c1c3cccc(F)c3cn21`: the GI50 in the experiment with BT-549 breast is 21.2 µM; in the experiment with CAKI-1 renal, 0.0137 µM; in the experiment on COLO 205 colon it was 0.0388 µM; in the experiment on DU-145 prostate, 0.0696 µM; in the experiment on KM12 colon, 0.0436 µM; with M14 melanoma, 0.0463 µM. Besides, the GI50 was 0.0408 µM in the experiment with SF-295 CNS, 0.0262 µM in the experiment on SNB-75 CNS, 9.55 µM in the experiment on TK-10 renal and over 92.9 µM with UACC-257 melanoma. The TGI is over 100 µM with BT-549 breast; 0.04 µM in the experiment on CAKI-1 renal; 1.11 µM in the experiment with COLO 205 colon; over 100 µM with DU-145 prostate; over 100 µM in the experiment on KM12 colon; over 100 µM in the experiment with M14 melanoma. Further, the figures for the TGI in the experiment with SNB-75 CNS, in the experiment on TK-10 renal and in the experiment on UACC-257 melanoma were 5.44 µM, over 100 µM and over 100 µM, respectively.

On to `CC1=C(c2ccccc2)C(O)(c2ccccc2)C(C)C1=O` (centres undefined), for which the GI50 is 14.6 µM in the experiment on BT-549 breast; 24.6 µM in the experiment with CAKI-1 renal; 25.1 µM with COLO 205 colon; 27.2 µM in the experiment on DU-145 prostate; 7.52 µM with KM12 colon; 4.72 µM in the experiment with M14 melanoma. Also, the GI50 in the experiment with SF-295 CNS is 12.7 µM; in the experiment on SNB-75 CNS it was 10.7 µM; in the experiment with TK-10 renal, 30.1 µM; in the experiment on UACC-257 melanoma, 55 µM. The TGI in the experiment with BT-549 breast is 55.4 µM; with CAKI-1 renal it was over 100 µM; in the experiment with COLO 205 colon, over 100 µM; in the experiment on DU-145 prostate, over 100 µM; with KM12 colon, over 100 µM; in the experiment with M14 melanoma, 33.7 µM. The TGI with SF-295 CNS is 62.6 µM; with SNB-75 CNS it was 42.8 µM; with TK-10 renal, over 100 µM; in the experiment with UACC-257 melanoma it was over 100 µM.

With `COc1ccc2c(c1OC)CO[C@@H]2[C@H]1c2c(cc3c(c2OC)OCO3)CCN1S(=O)(=O)c1cn(C)cn1`, the GI50 in the experiment with BT-549 breast was 2.87 µM; in the experiment on CAKI-1 renal, 1.01 µM; in the experiment on COLO 205 colon, 1.72 µM; in the experiment on DU-145 prostate it was 2.77 µM; with KM12 colon it was 0.684 µM; with M14 melanoma it was 0.513 µM. For the same molecule, the GI50 with SF-295 CNS is 1.18 µM; in the experiment with SNB-75 CNS, 1.6 µM; in the experiment on TK-10 renal it was over 100 µM; in the experiment on UACC-257 melanoma it was 9.43 µM. Further, the TGI was 84.8 µM with BT-549 breast; over 100 µM in the experiment with CAKI-1 renal; 11.6 µM in the experiment on COLO 205 colon; 12 µM with DU-145 prostate; over 100 µM with KM12 colon; over 100 µM with M14 melanoma. For the same molecule, the TGI in the experiment on SF-295 CNS, with SNB-75 CNS, in the experiment on TK-10 renal and in the experiment on UACC-257 melanoma was over 100 µM throughout.

For `COc1cc(/C=C/C(=O)/C=C/c2ccc(-n3ccnc3C)cc2)ccc1O`, the GI50 with BT-549 breast was 1.97 µM; in the experiment on CAKI-1 renal it was 3.06 µM; in the experiment with COLO 205 colon, 3.4 µM; in the experiment with DU-145 prostate, 2.82 µM; in the experiment on KM12 colon, 2.07 µM; in the experiment on M14 melanoma, 2.25 µM. Besides, the GI50 with SF-295 CNS is 24.6 µM; in the experiment on SNB-75 CNS, 9.61 µM; in the experiment with TK-10 renal it was 4.74 µM; in the experiment on UACC-257 melanoma, 3.33 µM. Moreover, the TGI in the experiment with BT-549 breast was 4.82 µM; with CAKI-1 renal it was 10.9 µM; in the experiment on COLO 205 colon, 12.1 µM; in the experiment with DU-145 prostate it was 7.55 µM; with KM12 colon, 4.25 µM; with M14 melanoma, 5.94 µM. In addition, the TGI was over 100 µM in the experiment on SF-295 CNS, over 100 µM with SNB-75 CNS, 90.4 µM with TK-10 renal and 13.5 µM in the experiment on UACC-257 melanoma.

For the origin of these results see PubChem BioAssay (NCI).
